Key:
Assay type in all cases: biochemical
Design in all cases: key: % of activity in reference formulation at time 0
Amylase = assay: amylase storage stability in liquid laundry formulation (pNP release from Ethyliden-blocked-pNPG7); settings: 2.5 wt % component (a), storage at 37° C.
Method: The storage stability of amylase was assessed at 37° C.
Base test formulations were manufactured by making base formulations VI to IX by mixing the components according to Table 4.
Amylase activity at certain points in time as indicated in Table 5 was measured quantitatively by the release of the chromophore para-nitrophenol (pNP) from the substrate (Ethyliden-blocked-pNPG7, Roche Applied Science 10880078103). The alpha-amylase degrades the substrate into smaller molecules and α-glucosidase (Roche Applied Science 11626329103), which is present in excess compared to the amylase, process these smaller products until pNP is released; the release of pNP, measured via an increase of absorption at 405 nm, is directly proportional to the amylase activity of the sample. Amylase standard: Termamyl 120 L (Sigma 3403).
The amylolytic activity values provided were calculated referring to the value determined in the reference formulation at the time 0.
The nomenclature of formulations is as follows: the Roman number before the full stop characterizes the base formulation, the Arabian number the type of compound (A.# compound according to invention (component (a)); B.# comparative compound).

Amy1=Stainzyme = assay: amylase storage stability in liquid formulation (pNP release from Ethyliden-blocked-pNPG7); settings: base formulation I., 1.5 wt % component (a), storage at 37° C.
Summary of the method: (§1)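 Amylase (dosed as active protein) was stored at 37 °C in liquid base formulations with or without test or comparative compounds. Activity at set time points was measured as pNP release (A405) from blocked-pNPG7 with excess α-glucosidase, expressed relative to the reference formulation at time 0.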

Amy2=Amplify = assay: as above; settings: storage at 37° C.
Summary of the method: as §1

[1] = laundry base formulation IX. (2.5 DTPA), 3 d
[2] = laundry base formulation IX. (2.5 DTPA), 7 d
[3] = laundry base formulation IX. (2.5 DTPA), 14 d
[4] = laundry base formulation IX. (2.5 DTPA), 21 d
[5] = laundry base formulation IX. (2.5 DTPA), 28 d
[6] = laundry base formulation IX. (2.5 DTPA), T0
[7] = laundry base formulation VIII. (2.5 DTPA, no Savinase), 3 d
[8] = laundry base formulation VIII. (2.5 DTPA, no Savinase), 7 d
[9] = laundry base formulation VIII. (2.5 DTPA, no Savinase), 14 d
[10] = laundry base formulation VIII. (2.5 DTPA, no Savinase), 21 d
[11] = laundry base formulation VIII. (2.5 DTPA, no Savinase), 28 d
[12] = laundry base formulation VIII. (2.5 DTPA, no Savinase), T0
[13] = base formulation III., 1.5 wt % component (a), 3 d
[14] = base formulation III., 1.5 wt % component (a), 7 d
[15] = base formulation III., 1.5 wt % component (a), 14 d
[16] = base formulation III., 1.5 wt % component (a), 21 d
[17] = base formulation III., 1.5 wt % component (a), 28 d
[18] = base formulation III., 1.5 wt % component (a), 42 d
[19] = base formulation III., 1.5 wt % component (a), T0

Compound: CCCOC(=O)CC(O)(CC(=O)OCCC)C(=O)OCCC [A.2, Tripropylcitrate]
- amylase activity, referring to reference formulation at time 0 (Amylase; [1]): 93
- amylase activity, referring to reference formulation at time 0 (Amylase; [2]): 85
- amylase activity, referring to reference formulation at time 0 (Amylase; [3]): 81
- amylase activity, referring to reference formulation at time 0 (Amylase; [4]): 72
- amylase activity, referring to reference formulation at time 0 (Amylase; [5]): 63
- amylase activity, referring to reference formulation at time 0 (Amylase; [6]): 100
- amylase activity, referring to reference formulation at time 0 (Amylase; laundry base formulation VI. (2.0 EDTA), 3 d): 94
- amylase activity, referring to reference formulation at time 0 (Amylase; laundry base formulation VI. (2.0 EDTA), 7 d): 86
- amylase activity, referring to reference formulation at time 0 (Amylase; laundry base formulation VI. (2.0 EDTA), 14 d): 80
- amylase activity, referring to reference formulation at time 0 (Amylase; laundry base formulation VI. (2.0 EDTA), 21 d): 74
- amylase activity, referring to reference formulation at time 0 (Amylase; laundry base formulation VI. (2.0 EDTA), 28 d): 65
- amylase activity, referring to reference formulation at time 0 (Amylase; laundry base formulation VI. (2.0 EDTA), T0): 101
- amylase activity, referring to reference formulation at time 0 (Amylase; [7]): 94
- amylase activity, referring to reference formulation at time 0 (Amylase; [8]): 87
- amylase activity, referring to reference formulation at time 0 (Amylase; [9]): 83
- amylase activity, referring to reference formulation at time 0 (Amylase; [10]): 77
- amylase activity, referring to reference formulation at time 0 (Amylase; [11]): 69
- amylase activity, referring to reference formulation at time 0 (Amylase; [12]): 99
- amylase activity, referring to reference formulation at time 0 (Amy1=Stainzyme; 3 d): 100
- amylase activity, referring to reference formulation at time 0 (Amy1=Stainzyme; 7 d): 96
- amylase activity, referring to reference formulation at time 0 (Amy1=Stainzyme; 14 d): 90
- amylase activity, referring to reference formulation at time 0 (Amy1=Stainzyme; 21 d): 84
- amylase activity, referring to reference formulation at time 0 (Amy1=Stainzyme; 28 d): 79
- amylase activity, referring to reference formulation at time 0 (Amy1=Stainzyme; 42 d): 66
- amylase activity, referring to reference formulation at time 0 (Amy1=Stainzyme; T0): 101
- amylase activity, referring to reference formulation at time 0 (Amy2=Amplify; [13]): 102
- amylase activity, referring to reference formulation at time 0 (Amy2=Amplify; [14]): 97
- amylase activity, referring to reference formulation at time 0 (Amy2=Amplify; [15]): 93
- amylase activity, referring to reference formulation at time 0 (Amy2=Amplify; [16]): 87
- amylase activity, referring to reference formulation at time 0 (Amy2=Amplify; [17]): 81
- amylase activity, referring to reference formulation at time 0 (Amy2=Amplify; [18]): 71
- amylase activity, referring to reference formulation at time 0 (Amy2=Amplify; [19]): 100
- amylase activity, referring to reference formulation at time 0 (Amy2=Amplify; base formulation V., 2.0 wt % component (a), 3 d): 95
- amylase activity, referring to reference formulation at time 0 (Amy2=Amplify; base formulation V., 2.0 wt % component (a), 7 d): 90
- amylase activity, referring to reference formulation at time 0 (Amy2=Amplify; base formulation V., 2.0 wt % component (a), 14 d): 84
- amylase activity, referring to reference formulation at time 0 (Amy2=Amplify; base formulation V., 2.0 wt % component (a), 21 d): 76
- amylase activity, referring to reference formulation at time 0 (Amy2=Amplify; base formulation V., 2.0 wt % component (a), 28 d): 66
- amylase activity, referring to reference formulation at time 0 (Amy2=Amplify; base formulation V., 2.0 wt % component (a), 42 d): 54
- amylase activity, referring to reference formulation at time 0 (Amy2=Amplify; base formulation V., 2.0 wt % component (a), T0): 98

Compound: CCOC(=O)CC(CC(=O)OCC)(OC(C)=O)C(=O)OCC [A.5, Acetyltriethylcitrate]
- amylase activity, referring to reference formulation at time 0 (Amylase; [1]): 91
- amylase activity, referring to reference formulation at time 0 (Amylase; [2]): 78
- amylase activity, referring to reference formulation at time 0 (Amylase; [3]): 69
- amylase activity, referring to reference formulation at time 0 (Amylase; [4]): 61
- amylase activity, referring to reference formulation at time 0 (Amylase; [5]): 53
- amylase activity, referring to reference formulation at time 0 (Amylase; [6]): 98
- amylase activity, referring to reference formulation at time 0 (Amylase; laundry base formulation VII. (2.0 EDTA), 3 d): 92
- amylase activity, referring to reference formulation at time 0 (Amylase; laundry base formulation VII. (2.0 EDTA), 7 d): 81
- amylase activity, referring to reference formulation at time 0 (Amylase; laundry base formulation VII. (2.0 EDTA), 14 d): 72
- amylase activity, referring to reference formulation at time 0 (Amylase; laundry base formulation VII. (2.0 EDTA), 21 d): 66
- amylase activity, referring to reference formulation at time 0 (Amylase; laundry base formulation VII. (2.0 EDTA), 28 d): 61
- amylase activity, referring to reference formulation at time 0 (Amylase; laundry base formulation VII. (2.0 EDTA), T0): 98
- amylase activity, referring to reference formulation at time 0 (Amylase; [7]): 93
- amylase activity, referring to reference formulation at time 0 (Amylase; [8]): 83
- amylase activity, referring to reference formulation at time 0 (Amylase; [9]): 74
- amylase activity, referring to reference formulation at time 0 (Amylase; [10]): 67
- amylase activity, referring to reference formulation at time 0 (Amylase; [11]): 64
- amylase activity, referring to reference formulation at time 0 (Amylase; [12]): 100
- amylase activity, referring to reference formulation at time 0 (Amy1=Stainzyme; 3 d): 91
- amylase activity, referring to reference formulation at time 0 (Amy1=Stainzyme; 7 d): 80
- amylase activity, referring to reference formulation at time 0 (Amy1=Stainzyme; 14 d): 72
- amylase activity, referring to reference formulation at time 0 (Amy1=Stainzyme; 21 d): 63
- amylase activity, referring to reference formulation at time 0 (Amy1=Stainzyme; 28 d): 55
- amylase activity, referring to reference formulation at time 0 (Amy1=Stainzyme; 42 d): 37
- amylase activity, referring to reference formulation at time 0 (Amy1=Stainzyme; T0): 97
- amylase activity, referring to reference formulation at time 0 (Amy2=Amplify; [13]): 96
- amylase activity, referring to reference formulation at time 0 (Amy2=Amplify; [14]): 92
- amylase activity, referring to reference formulation at time 0 (Amy2=Amplify; [15]): 87
- amylase activity, referring to reference formulation at time 0 (Amy2=Amplify; [16]): 78
- amylase activity, referring to reference formulation at time 0 (Amy2=Amplify; [17]): 71
- amylase activity, referring to reference formulation at time 0 (Amy2=Amplify; [18]): 55
- amylase activity, referring to reference formulation at time 0 (Amy2=Amplify; [19]): 96
